# Reference: PMC5428354, “Screening of a natural compound library identifies emodin, a natural compound from Rheum palmatum Linn that inhibits DPP4” (PeerJ, 2017)
# Like-named read-outs stand apart in the source and are kept apart here.
# Target: DPP4 (Homo sapiens, UniProt P27487)
# Experiment: DPP4 activity assay (DPP4 inhibitor screening assay kit, Cayman);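 also: fluorescence read at excitation 360 nm and emission 460 nm after the enzyme reaction ran 30 min at 37 °C in a 96-well plate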
# Assay type: biochemical
# Parameters: purchased Cayman Chemical, Ann Arbor, MI, USA
# Details: 10 µM, control mean 100.0; for remaining activity at 10 µM: 0.5 h
# [1] = Figure 1A raw data, read-out: DPP4 activity in library screen, Exp 1
# [2] = Figure 1A raw data, read-out: DPP4 activity in library screen, Exp 2
# [3] = Figure 1A raw data, read-out: DPP4 activity in library screen, Exp 3
# [4] = mean of Exp 1-3, read-out: DPP4 activity in library screen, Mean
# Sequence of DPP4 (P27487 whole entry): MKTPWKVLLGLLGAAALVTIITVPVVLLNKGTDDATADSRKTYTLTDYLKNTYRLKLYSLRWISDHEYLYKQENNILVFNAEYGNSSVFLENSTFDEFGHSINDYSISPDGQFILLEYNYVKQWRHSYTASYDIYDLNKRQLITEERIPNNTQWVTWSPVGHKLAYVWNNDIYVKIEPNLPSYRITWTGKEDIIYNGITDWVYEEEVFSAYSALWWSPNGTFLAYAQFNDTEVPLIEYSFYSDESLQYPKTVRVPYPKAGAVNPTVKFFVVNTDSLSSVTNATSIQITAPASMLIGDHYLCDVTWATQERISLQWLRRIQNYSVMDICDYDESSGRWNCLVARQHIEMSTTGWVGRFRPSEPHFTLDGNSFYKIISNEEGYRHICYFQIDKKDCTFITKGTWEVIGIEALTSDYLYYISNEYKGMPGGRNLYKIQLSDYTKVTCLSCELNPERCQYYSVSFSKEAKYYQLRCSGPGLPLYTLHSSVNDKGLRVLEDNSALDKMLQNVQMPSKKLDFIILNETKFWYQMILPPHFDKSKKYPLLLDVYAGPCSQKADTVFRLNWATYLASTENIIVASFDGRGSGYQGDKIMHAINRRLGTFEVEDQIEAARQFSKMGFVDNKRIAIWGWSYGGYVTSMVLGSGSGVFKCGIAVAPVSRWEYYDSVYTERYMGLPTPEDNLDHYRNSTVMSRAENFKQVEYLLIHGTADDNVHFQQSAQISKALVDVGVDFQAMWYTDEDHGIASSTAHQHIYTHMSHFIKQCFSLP
Compound,"DPP4 activity in library screen, Exp 1 (Figure 1A raw data)","DPP4 activity in library screen, Exp 2 (Figure 1A raw data)","DPP4 activity in library screen, Exp 3 (Figure 1A raw data)","DPP4 activity in library screen, Mean (mean of Exp 1-3)",remaining activity at 10 µM [1] [%],remaining activity at 10 µM [2] [%],remaining activity at 10 µM [3] [%],remaining activity at 10 µM [4] [%]
COc1cc(/C=C/C(=O)O)ccc1O [Ferulic Acid],97.5,83.7,98,93.1,–,–,–,–
O=C1c2c(O)cc(O)cc2O[C@H](c2cc(O)c(O)c(O)c2)[C@H]1O [Dihydromyricetin],–,–,–,–,101,88.8,72.1,87.3
Myricitrin,67,70.2,70.2,69.1,–,–,–,–
CC1(C)CCC[C@]2(C)[C@H]3CC(=O)O[C@]3(C)CC[C@@H]12 [Sclareolide],95.1,80.7,80.2,85.3,–,–,–,–
O.O=c1c(O)c(-c2ccc(O)cc2O)oc2cc(O)cc(O)c12 [Morin Hydrate],79.5,73.7,79.4,77.5,–,–,–,–
CC1=C(CC/C(C)=C/CCC2=CC[C@H](C3=CC(=O)O[C@H]3O)O[C@H]2O)C(C)(C)CCC1 [Manoalide],–,–,–,–,102,112,125,113
O=c1ccc2cc(O[C@@H]3O[C@H](CO)[C@@H](O)[C@H](O)[C@H]3O)c(O)cc2o1 [Esculin],–,–,–,auto-fluorescence,–,–,–,–
COc1ccc([C@@H]2CC(=O)c3c(O)cc(O[C@@H]4O[C@H](CO[C@@H]5O[C@@H](C)[C@H](O)[C@@H](O)[C@H]5O)[C@@H](O)[C@H](O)[C@H]4O)cc3O2)cc1O [Hesperidin],97.2,95.1,85.1,92.5,–,–,–,–
Nc1nc2c(ncn2[C@@H]2O[C@H](CO)[C@@H](O)[C@H]2O)c(=O)[nH]1 [Guanosine],–,–,–,–,104,102,90.2,98.5
Cc1c(C(=O)NCCO)[n+]([O-])c2ccccc2[n+]1[O-] [Olaquindox],–,–,–,–,77.8,99.1,116,97.8
OC[C@@H](O)[C@@H](O)[C@H](O)[C@@H](O)CO [Sorbitol],–,–,–,–,94.5,91.5,90.4,92.1
O=C(CCc1ccc(O)cc1)c1c(O)cc(O)cc1O [Phloretin],–,–,–,–,78.9,90.5,55.2,74.9
COc1ccc(CC2NCCc3cc(OC)c(OC)cc32)cc1OC.Cl (stereo not shown) [Tetrahydropapaverine HCl],92.5,78,76.9,82.5,–,–,–,–
C[C@@H]1O[C@@H](O[C@H]2[C@H](Oc3cc(O)c4c(c3)O[C@H](c3ccc(O)cc3)CC4=O)O[C@H](CO)[C@@H](O)[C@@H]2O)[C@H](O)[C@H](O)[C@H]1O [Naringin],–,–,–,–,116,82.6,68.6,89.2
O=c1cc(-c2ccccc2)oc2cc(O)cc(O)c12 [Chrysin],–,–,–,–,85.4,87.6,71.2,81.4
"Cc1cc(=O)oc2cc(O)ccc12 [4-Methylumbelliferone (4-MU), 4-Methylumbelliferone]",–,–,–,auto-fluorescence,–,–,–,–
CC[C@H](CC[C@@H](C)[C@H]1CC[C@H]2[C@@H]3CC=C4C[C@@H](O)CC[C@]4(C)[C@H]3CC[C@]12C)C(C)C [beta-sitosterol],–,–,–,–,98.6,92.3,104,98.2
O=c1cc(-c2ccc(O)cc2)oc2cc(O)cc(O)c12 [Apigenin],–,–,–,–,97.4,70.3,67.8,78.5
"O=C1c2c(O)cc(O)cc2OC(c2ccc(O)c(O)c2)C1O (stereo not shown) [Taxifolin (Dihydroquercetin), Taxifolin]",–,–,–,–,93.8,83.2,67.9,81.6
O=C(O)C1=C[C@@H](O)[C@@H](O)[C@H](O)C1 [Shikimic Acid],–,–,–,–,87.3,80.7,84.9,84.3

Compound,"DPP4 activity in library screen, Exp 1 (Figure 1A raw data)","DPP4 activity in library screen, Exp 2 (Figure 1A raw data)","DPP4 activity in library screen, Exp 3 (Figure 1A raw data)","DPP4 activity in library screen, Mean (mean of Exp 1-3)",remaining activity at 10 µM [1] [%],remaining activity at 10 µM [2] [%],remaining activity at 10 µM [3] [%],remaining activity at 10 µM [4] [%]
C=C[C@](C)(O)CC[C@@H]1[C@@]2(C)CCCC(C)(C)[C@@H]2CC[C@@]1(C)O [Sclareol],–,–,–,–,80.9,99.9,71.4,84.1
O=C([O-])C(O)Cc1ccc(O)c(O)c1.[Na+] (stereo not shown) [Sodium Danshensu],95.8,90.3,90.2,92.1,–,–,–,–
c1coc(CNc2ncnc3[nH]cnc23)c1 [Kinetin],–,–,–,–,97.6,93.8,93,94.8
O=C(O)Cc1c[nH]c2ccccc12 [Indole-3-acetic acid],–,–,–,–,115,108,121,115
OC[C@H]1O[C@@H](OCCc2ccc(O)cc2)[C@H](O)[C@@H](O)[C@@H]1O [Salidroside],–,–,–,–,97.1,97.1,113,102
O=c1c(O)c(-c2ccc(O)c(O)c2)oc2cc(O)cc(O)c12 [Quercetin Dihydrate],59.9,57,57.1,58.0,–,–,–,–
OCc1c[nH]c2ccccc12 [Indole-3-carbinol],–,–,–,–,103,92,88.7,94.6
COc1c(O)cc2c(c1O)[C@@H]1O[C@H](CO)[C@@H](O)[C@H](O)[C@H]1OC2=O [Bergenin],–,–,–,–,114,102,73.5,96.3
COC12c3c(C)cc(O)c4c(=O)occ(c34)C(=O)C1C13COC(=O)c4c(O)cc(C)c(c41)C(=O)C2C3OC(C)=O (stereo not shown) [duclauxin],98.3,99.5,163.1,120.3,–,–,–,–
CC[C@@]1(O)C(=O)OCc2c1cc1n(c2=O)Cc2cc3cc(O)ccc3nc2-1 [(S)-10-Hydroxycamptothecin],–,–,–,–,87.4,77.6,85.7,83.6
"CC(C)Oc1ccc2c(=O)c(-c3ccccc3)coc2c1 [Ipriflavone (Osteofix), Ipriflavone]",–,–,–,–,85.8,99.7,98,94.5
OC[C@H]1O[C@@H](Oc2ccc(O)cc2)[C@H](O)[C@@H](O)[C@@H]1O [Arbutin],–,–,–,–,95.9,96.2,96.1,96.1
C[C@H]1COC2=C1C(=O)C(=O)c1c2ccc2c1CCCC2(C)C [Cryptotanshinone],–,–,–,–,60.3,66.5,58.2,61.7
C[N+](C)(C)CC(O)CC(=O)O.[Cl-] (racemic) [DL-Carnitine HCl],97.3,93.1,99.1,96.5,–,–,–,–
CN1CC[C@]23c4ccccc4N[C@H]1[C@]21CCN(C)[C@H]3Nc2ccccc21 [Calycanthine],98.1,98.8,109.2,102.0,–,–,–,–
COc1ccc([C@@H]2CC(=O)c3c(O)cc(O[C@@H]4O[C@H](CO)[C@@H](O)[C@H](O)[C@H]4O[C@@H]4O[C@@H](C)[C@H](O)[C@@H](O)[C@H]4O)cc3O2)cc1O [Neohesperidin],93.8,90.3,71.8,85.3,–,–,–,–
COc1cc(C(C)=O)ccc1O [Apocynin],–,–,–,–,82.6,90.9,116,96.6
C=C1CC[C@@H]2[C@](C)(CO)[C@H](O)CC[C@@]2(C)[C@@H]1C/C=C1/C(=O)OC[C@H]1O [Andrographolide],–,–,–,–,103,100,96.8,100
O=c1c(O)c(-c2ccc(O)cc2)oc2cc(O)cc(O)c12 [Kaempferol],–,–,–,–,52,72.5,70.4,65
COc1ccc([C@@]23Oc4cc(OC)cc(OC)c4[C@]2(O)[C@H](O)[C@H](C(=O)N(C)C)[C@H]3c2ccccc2)cc1 [Rocaglamide],–,–,–,–,100,100,94.9,98.5
